Test results as given in patent US11166980B2, “Compositions, systems, kits, and methods for treating an infection” (Novan, Inc., priority 2016, dated 2021).
Read-outs that look alike come from different tables or passages of the source.

Key:
Format in all cases: cell-based
Candida albicans = assay: Minimum inhibitory concentration (CLSI)
Description: (§1) The minimum inhibitory concentration (MIC) of Nitricil™ NVN1 was determined in vitro for 40 strains of fungi to determine the spectrum of antifungal activity. All MIC testing was conducted in accordance with the Clinical and Laboratory Standards Institute (CLSI) guidelines for antimicrobial testing of yeasts (M27-A2) and filamentous fungi (M38-A2), apart from the lipophilic Malassezia species, which were incubated in supplemented buffered RPMI-1640 medium. The challenge strains were exposed to a series of doubling dilutions of Nitricil™ NVN1 prepared in RPMI-1640 medium in triplicate. Fungal species were also challenged with ketoconazole, prepared in DMSO, as a comparator. Tubes were inoculated with fungal suspensions to a final concentration of 0.5-2.5×10^3 cells/mL for yeasts and 0.4-5.0×10^4 colony-forming units (CFU)/mL, for filamentous fungi. The MIC was determined following a 1- to 4-day incubation period.

Epidermophyton floccosum = assay: Minimum inhibitory concentration (CLSI)
Description: as §1

Trichophyton rubrum = assay: Minimum inhibitory concentration (CLSI)
Description: as §1

Candida tropicalis = assay: Minimum inhibitory concentration (CLSI); settings: NCPF8760
Description: as §1

Fusarium oxysporum = assay: Minimum inhibitory concentration (CLSI); settings: ATCC62705
Description: as §1

Candida lusitaniae = assay: Minimum inhibitory concentration (CLSI); settings: Clavispora lusitaniae, ATCC200950
Description: as §1

[1] = tested on: Trichophyton mentagrophytes; assay: Minimum inhibitory concentration (CLSI)
Description: as §1

Fusarium keratoplasticum = assay: Minimum inhibitory concentration (CLSI); settings: ATCC36031
Description: as §1

Fusarium solani = assay: Minimum inhibitory concentration (CLSI); settings: ATCC56480
Description: as §1

Malassezia furfur = assay: Minimum inhibitory concentration (supplemented RPMI-1640)
Description: as §1

40 strains of fungi = assay: Minimum inhibitory concentration, whole panel
Description: as §1
The broad-spectrum antifungal activity of Nitricil™ NVN1 was assessed via growth inhibition experiments against 40 different fungal strains per CLSI M27-A2 and M38-A2 methodology (CLSI, 2008) for assessment of yeasts and filamentous fungi respectively utilizing ketoconazole as the antifungal comparator. […]

CC(=O)N1CCN(c2ccc(OCC3COC(Cn4ccnc4)(c4ccc(Cl)cc4Cl)O3)cc2)CC1 (centres unmarked) [Ketoconazole, ketoconazole]
0.5 µg/mL: MIC ([1]; NCPF5024, strain NCPF #5024, read-out: MIC)
> 32 µg/mL: MIC (Candida albicans; Candida albicans, ATCC96901, strain ATCC #96901, read-out: MIC) | MIC (Candida albicans; Candida albicans, strain BLSI #112613Ca1, read-out: MIC) | MIC (Epidermophyton floccosum; ATCC52063, strain ATCC #52063, read-out: MIC) | MIC (Epidermophyton floccosum; ATCC52066, strain ATCC #52066, read-out: MIC) | MIC (Epidermophyton floccosum; NCPF5011, strain NCPF #5011, read-out: MIC) | MIC (Epidermophyton floccosum; NCPF5012, strain NCPF #5012, read-out: MIC) | MIC (Trichophyton rubrum; ATCC44697, strain ATCC #44697, read-out: MIC) | MIC (Trichophyton rubrum; NCPF0113, strain NCPF #0113, read-out: MIC) | MIC (Trichophyton rubrum; NCPF0295, strain NCPF #0295, read-out: MIC) | MIC (Trichophyton rubrum; NCPF5025, strain NCPF #5025, read-out: MIC) | MIC (Trichophyton rubrum; strain ATCC #MYA-4438, read-out: MIC) | MIC (Fusarium oxysporum) | MIC (Fusarium keratoplasticum) | MIC (Fusarium solani) | MIC (Malassezia furfur; ATCC14521, strain ATCC #14521) | MIC (Malassezia furfur; NCPF3349, strain NCPF #3349)
32 µg/mL: MIC (Candida tropicalis)
4 µg/mL: MIC (Epidermophyton floccosum; ATCC38826, strain ATCC #38826, read-out: MIC)
>32.0 µg/mL: MIC (Candida albicans; strain BLSI #112613Ca2)
1 µg/mL: MIC (Epidermophyton floccosum; ATCC52061, strain ATCC #52061, read-out: MIC) | MIC ([1]; ATCC9533, strain ATCC #9533, read-out: MIC) | MIC ([1]; ATCC28939, strain ATCC #28939, read-out: MIC)
0.125 µg/mL: MIC (Epidermophyton floccosum; ATCC44685) | MIC (Trichophyton rubrum; ATCC28188) | MIC ([1]; ATCC18749)
16 µg/mL: MIC (Candida albicans; Candida albicans, ATCC58716, strain ATCC #58716, read-out: MIC) | MIC (Malassezia furfur; NCPF8211, strain NCPF #8211)
> 500 fold: fold range of MIC values for all fungal species tested (40 strains of fungi)
0.25 µg/mL: MIC ([1]; NCPF0224, strain NCPF #0224, read-out: MIC)
< 0.063 µg/mL: MIC (Candida albicans; Candida albicans, ATCC10231, strain ATCC #10231, read-out: MIC) | MIC (Trichophyton rubrum; ATCC10218, strain ATCC #10218, read-out: MIC) | MIC (Trichophyton rubrum; ATCC22402, strain ATCC #22402, read-out: MIC) | MIC (Trichophyton rubrum; NCPF0118, strain NCPF #0118, read-out: MIC) | MIC (Candida lusitaniae)
